Assay [1] concerns OVCAR3 human ovarian cancer cells. Briefly: OVCAR3 cell line-derived subcutaneous xenograft. Type of assay: in vivo, Athymic Nude mouse. The settings on record: 20 mg/kg intraperitoneally once per week for three weeks. The method, then: An Athymic Nude mouse subcutaneous xenograft mouse model was generated with OVCAR3 human ovarian cancer cells. Animals were treated with humanized anti-STn ADCs (1 mg/kg, 2.5 mg/kg, 5 mg/kg), an isotype ADC (1 mg/kg, 5 mg/kg), Paclitaxel (20 mg/kg) or vehicle alone. ADCs were administrated intravenously once per week for four weeks. Paclitaxel was administrated intraperitoneally once per week for three weeks. […] At the end of the study, tumor tissues were collected and analyzed using immunohistochemistry for expression of STn.

Assay [2] relates to Primary patient CRC samples. Kind of assay: STn expression in primary patient CRC samples by flow cytometry. Type of assay: cell-based. To be noted: % of viable CD45−/CD34− population. An excerpt:
Primary patient CRC samples were probed by flow cytometry with hSIA101 and two commercial antibodies B72.3 and CC49. All 10 samples tested were STn positive. In the table, % STn is expressed as % of viable CD45−/CD34− population. STn expression was often more robustly identified with hSIA101 than the commercial antibodies.
A general note: A flow cytometer gives signals particle by particle.

`CC(=O)O[C@H]1C(=O)[C@@]2(C)[C@H]([C@H](OC(=O)c3ccccc3)[C@]3(O)C[C@H](OC(=O)[C@H](O)[C@@H](NC(=O)c4ccccc4)c4ccccc4)C(C)=C1C3(C)C)[C@]1(OC(C)=O)CO[C@@H]1C[C@@H]2O` [Paclitaxel]: the Mean tumor volume in assay [1] (Day 1) is given as 161.2 mm^3; in assay [1] (Day 4), 210.0 mm^3; in assay [1] (Day 9) it was 370.0 mm^3; in assay [1] (Day 12), 482.3 mm^3; in assay [1] (Day 15), 620.4 mm^3; in assay [1] (Day 18) it was 767.4 mm^3. In addition, the Mean tumor volume in assay [1] (Day 23) is recorded as 971.6 mm^3; in assay [1] (Day 26), 1133.0 mm^3; in assay [1] (Day 30), 1277.8 mm^3; in assay [1] (Day 31), 1385.2 mm^3.

B1: B72.3: commercial anti-STn antibody (antibody, chains of the INN, looked up, V domains shown)
VH: QVQLQQSDAELVKPGASVKISCKASGYTFTDHAIHWAKQKPEQGLEWIGYISPGNDDIKYNEKFKGKATLTADKSSSTAYMQLNSLTSEDSAVYFCKRSYYGHWGQGTTLTVSS
VL: DIQMTQSPASLSVSVGETVTITCRASENIYSNLAWYQQKQGKSPQLLVYAATNLADGVPSRFSGSGSGTQYSLKINSLQSEDFGSYYCQHFWGTPYTFGGGTRLEIK
Take B1: the “% STn+” value was found to be 18.9% in assay [2] (Sample 160093-2, Colon); 5.8% in assay [2] (Sample 160101-2, Colon); 14.7% in assay [2] (Sample 160102-2, Colon); 46.6% in assay [2] (Sample 160104-2, Colon Met to Liver); 13% in assay [2] (Sample 160115-2, Colon); 14.4% in assay [2] (Sample 160127-2, Colon). The “% STn+” value in assay [2] (Sample 160149-1, Colon) worked out at 10.5%; in assay [2] (Sample 160151-1, Colon), 6.8%; in assay [2] (Sample 169068-1, Colon), 7.4%; in assay [2] (Sample 1601666, Colon), 17.3%.

Source of the values: patent US20230001007A1, “Glycan-Interacting Compounds and Methods of Use” (Seagen Inc., priority 2017, published 2023).
